Reference: patent US20090170880A1, “Methods and Means for the Treatment of Cancer” (priority 2007, published 2009)

What was measured:
murine Bcrp1 = target: T1, murine Bcrp1 (Mus musculus, UniProt Q7TMS5); assay: Transwell transport of temozolomide, MDCKII-Bcrp1 cells, without or with inhibitors; assay type: in vitro ADME; settings: 40 μg/ml, MDCK-Bcrp1 versus MDCK parent, zosuquidar 5 μM
T1 construct: expressed in transfected cells; host or cells: MDCKII (canine kidney) cells transduced with murine Bcrp1
T1 sequence (Q7TMS5 1-657): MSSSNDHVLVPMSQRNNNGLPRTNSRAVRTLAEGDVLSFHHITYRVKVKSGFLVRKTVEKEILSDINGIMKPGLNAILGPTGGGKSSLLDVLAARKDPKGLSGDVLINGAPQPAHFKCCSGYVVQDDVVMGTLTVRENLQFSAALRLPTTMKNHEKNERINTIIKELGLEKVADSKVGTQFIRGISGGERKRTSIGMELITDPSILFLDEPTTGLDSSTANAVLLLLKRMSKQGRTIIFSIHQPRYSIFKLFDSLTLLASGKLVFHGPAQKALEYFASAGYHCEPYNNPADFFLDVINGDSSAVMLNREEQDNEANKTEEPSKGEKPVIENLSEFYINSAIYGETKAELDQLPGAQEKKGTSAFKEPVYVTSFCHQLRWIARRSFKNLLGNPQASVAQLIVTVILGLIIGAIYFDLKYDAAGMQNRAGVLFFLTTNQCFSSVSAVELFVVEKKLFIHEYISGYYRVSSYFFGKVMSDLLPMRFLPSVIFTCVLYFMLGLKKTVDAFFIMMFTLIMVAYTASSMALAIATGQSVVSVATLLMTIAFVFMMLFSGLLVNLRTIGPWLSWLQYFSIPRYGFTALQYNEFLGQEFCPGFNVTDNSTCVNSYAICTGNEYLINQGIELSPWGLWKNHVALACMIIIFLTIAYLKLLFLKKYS
Description: The parental LLC pig-kidney (PK1) cell line and sublines transduced with murine Mdr1a or human MDR1 (12) and the parental Madine Darby Canine Kidney (MDCK) and murine Bcrp1 or human BCRP transduced sublines (13) were seeded on Transwell microporous polycarbonate membrane filters (3.0 μm pore size, 24 mm diameter; Costar Corning, N.Y., USA) at a density of 1×10^6 cells per well in 2 ml of MEM medium (Invitrogen Corporation, Carlsbad, Calif.) containing 10% v/v fetal calf serum. Cells were incubated at 37° C. in 5% CO2 for three days with one medium replacement after the first day. Two hours before the start of the experiment the medium in both compartments was replaced with 2 ml of OptiMEM medium (InVitrogen Corp.). At the start of the experiment the medium in the apical or basolateral compartment was replaced with 2 ml of freshly prepared OptiMEM medium containing 40 μg/ml of temozolomide. […] Zosuquidar (LY335979, 5 μM) was always added to the medium when doing experiments with MDCK cell lines to inhibit endogenous canine P-gp. Samples of 50 μl were collected every 30 min, for up to 2 h after start of the experiment. Because temozolomide is instable in medium at 37° C., we replaced one ml of the donor compartment by a freshly prepared aliquot every 30 min. [^3H]-inulin (approximately 7 kBq per well) was added to the same compartment as temozolomide to check the integrity of the cell layer. Wells showing a leakage of more than 1.5% per hour were excluded.
First, we took samples every 30 min for up to 2 h instead of every hour for up to 4 h. Secondly, to maintain adequate temozolomide levels at the donor side throughout the experiment we replaced 1 ml of the 2 ml of medium at the donor side of the transwell at each sampling time by 1 ml of a freshly prepared temozolomide solution in medium.

[1] = Stability of temozolomide in culture medium; assay type: physicochemical
U87 = assay: Antitumor response against U87 tumor; assay type: in vivo; settings: one single dose of 25 mg/kg, results not shown

Cn1nnc2c(C(N)=O)ncn2c1=O [temozolomide, 8-carbamoyl-3-methyl-[3H]-imidazo[5,1-d]-1,2,3,5-tetrazin-4-one]
transport of temozolomide by murine Bcrp1 (murine Bcrp1): clear vectorial transport | transport of temozolomide by murine Bcrp1 (murine Bcrp1; listed as Temozolomide): evident | half-life ([1]; culture medium at 37° C.): ~30 min | degradation ([1]; pH 7.4, in 30 min): about 50% | antitumor response (U87): significant antitumor response
